These results are taken from paper PMC3742671, “Structure, Antimicrobial Activities and Mode of Interaction with Membranes of Bovel Phylloseptins from the Painted-Belly Leaf Frog, Phyllomedusa sauvagii” (PLoS ONE, 2013).

For data set [1], the system named is Leishmania infantum (strain MHOM/MA/67/ITMAP-263) promastigotes. Type of data set: cell-based. How it is done: (§1) The effect of phylloseptins-S was evaluated against several bacterial strains and yeasts (Table 2). Bacteria were cultured in Luria-Bertani broth (LB), whereas yeasts were cultured in Yeast Peptone Dextrose medium (YPD), and minimal inhibitory concentrations (MICs) were determined by measuring the absorbance at 630 nm in 96-well microtitration plates, as described previously. Leishmanicidal activity of phylloseptins-S was also examined against promastigotes of different Leishmania species: Leishmania infantum (strain MHOM/MA/67/ITMAP-263), L. major (MHOM/SU/73/5-ASKH) and L. braziliensis (MHOM/BR/75/M2904). Culture of promastigotes and determination of the growth inhibition were performed as previously described, [22], [23].
Figure 3 Activity of phylloseptins-S against Leishmania infantum promastigotes. IC50 values were determined from a dose-response inhibition fit using GraphPad Prism 5.0 (Table 2). Results represent the mean ± S.E.M. and are representative of three experiments carried out in triplicates.

For data set [2], the system named is human leukemia monocyte cell line THP-1. The data set is described as follows: Cytotoxic activity, MTT. The class given is cell-based. The settings on record: for IC50: 72 h, 37°C, RPMI + 10% FCS, peptide 3 to 50 µM, MTT read at 570 nm, average of three independent experiments in triplicates; for LC50: value stated jointly for the three peptides. The protocol:
(§2) Hemolytic assays were performed using fresh human erythrocytes from a healthy donor according to a previously described protocol. Cytotoxic activity of PLS-S was also determined on the human leukemia monocyte cell line THP-1. 80 µL of 6.25×10^5 cells/mL were incubated for 72 h with 20 µL of peptide (3 to 50 µM, final concentrations) at 37°C and 5% CO2 in RPMI medium supplemented with 10% FCS. The cell viability was determined by adding 10 µL of methylthiazolyldiphenyl-tetrazolium bromide (MTT, 10 mg/mL) to the plate. After 4h incubation at 37°C, formazan was solubilized with 100 µL of a solution containing 50% isopropanol and 10% SDS, and the absorbance was measured at 570 nm. The lytic concentration 50 (LC50), which correspond to the peptide concentration producing 50% lysis, was determined with the GraphPad Prism® 5.0 software. Results were expressed as the mean of three independent experiments performed in triplicates.

The next data set relates to S. aureus ATCC BAA-44. The following applies: multidrug resistant strain; LB medium (pH 7), absorbance at 630 nm; average of three independent experiments in triplicates. How it is done:
as §1
(§3) The antimicrobial activity of synthetic PLS-S1 to -S5 was assayed in LB medium (pH 7) against several Gram-negative and Gram-positive bacteria, and multi-drug resistant S. aureus strains. […] The antiparasitic activity of PLSs was also determined against three Leishmania species (L. infantum, L. major, and L. braziliensis). […] Because PLS-S3 contains histidines as basic residues and that approximately only 11% of these residues are positively charged at pH 7, we have evaluated the antibacterial activity at pH 5 at which His residues are predominantly positively charged (∼91%).

Another data set relates to A. baumannii ATCC 19606. The settings on record: LB medium (pH 7), absorbance at 630 nm; average of three independent experiments in triplicates. The protocol:
as §1, §3

Another data set relates to E. coli ATCC 25922. The settings on record: for MIC: ATCC 25922, pH 7. The protocol:
as §1, §3

Another data set concerns E. coli ML-35p. The settings on record: LB medium (pH 7), absorbance at 630 nm; average of three independent experiments in triplicates. How it is done:
as §1, §3

The next data set concerns S. aureus ST1065. The settings on record: LB medium (pH 7), absorbance at 630 nm; average of three independent experiments in triplicates. How it is done: as §1, §3
The next data set deals with P. aeruginosa ATCC 27853. The following applies: LB medium (pH 7), absorbance at 630 nm; average of three independent experiments in triplicates. The protocol: as §1, §3
A further data set relates to S. aureus ATCC 25923. The settings on record: LB medium (pH 7), absorbance at 630 nm, 96-well plates; average of three independent experiments in triplicates. How it is done: as §1, §3
Another data set deals with E. faecalis ATCC 29212. The following applies: LB medium (pH 7), absorbance at 630 nm; average of three independent experiments in triplicates. The protocol:
as §1, §3

For a further data set, the system named is S. aureus ATCC 43300. The settings on record: strain resistant to methicillin and oxacillin; LB medium (pH 7), absorbance at 630 nm; average of three independent experiments in triplicates. The protocol: as §1, §3
Another data set has as its system S. pyogenes ATCC 19615. The settings on record: LB medium (pH 7), absorbance at 630 nm; average of three independent experiments in triplicates. The protocol:
as §1, §3

The subject of another data set is K. pneumoniae ATCC 13883. The settings on record: LB medium (pH 7), absorbance at 630 nm; average of three independent experiments in triplicates. How it is done:
as §1, §3

Another data set concerns human erythrocytes. Type of data set: cell-based. How it is done:
as §2

In data set [3] the test system is L. major (MHOM/SU/73/5-ASKH) promastigotes. Type of data set: cell-based. How it is done: as §1
The subject of data set [4] is L. braziliensis (MHOM/BR/75/M2904) promastigotes. Type of data set: cell-based. How it is done: as §1
The test system of data set [5] is C. parapsilosis ATCC 22019. The class given is cell-based. How it is done: as §1
A further data set relates to S. cerevisiae. The class given is cell-based. The protocol:
as §1

Data set [6] can be described thus: Circular dichroism spectroscopy with DMPC/DMPG (3:1) large unilamellar vesicles. The following applies: CD, peptide 30 µM, DMPC/DMPG (3:1) LUVs 1 mg/mL in PBS pH 7.3. Type of data set: physicochemical. How it is done:
(§4) The far-ultraviolet circular dichroism (CD) spectra were recorded as described. Phylloseptins-S (30 µM) were solubilized either in 80 mM sodium dodecyl sulfate (SDS) or in phosphate-buffered saline (PBS: 10 mM phosphate, pH 7.3) containing 1 mg/mL of large unilamellar vesicles (LUVs) of 1,2-dimyristoyl-sn-glycero-3-phosphocholine (DMPC) and 1,2-dimyristoyl-sn-glycero-3-phosphoglycerol (DMPG) (3∶1 mol/mol). DMPC and DMPG were purchased from Avanti Polar Lipids, Inc. Each spectrum was the average of four scans. CD measurements are reported as Δ/n, where Δ is the dichroic increment and n is the number of residues in the peptide.
(§5) Figure 6 Circular dichroism spectra of synthetic phylloseptins-S (30 µM). (A) DMPC/DMPG (3∶1) large unilamellar vesicles in PBS (1 mg/mL). (B) 80 mM SDS. CD measurements are reported as the dichroic increment (Δε) per residue.

Data set [7] in a line: Circular dichroism spectroscopy in SDS micelles. Type of data set: physicochemical. The following applies: CD, peptide 30 µM in 80 mM SDS. How it is done: as §4, §5

Like-named read-outs stand apart in the source and are kept apart here. Ends that are not written are not given here.

Regarding FLSLIPHIVSGVASIAKHF-NH2 [PLS-S1], the IC50 in data set [1] was found to be 16.5 µM; in data set [2], 23 µM; in data set [3], 12.6 µM; in data set [4], 15.3 µM. In addition, the LC50 in data set [2] is 23 µM. The MIC in the data set on S. aureus ATCC BAA-44 was 6.25 µM; in the data set with A. baumannii ATCC 19606, 6.25 µM; against E. coli ATCC 25922 it was 70 µM; against E. coli ML-35p, above 100 µM; with S. aureus ST1065, 6.25 µM; against P. aeruginosa ATCC 27853 it was above 100 µM. Also, the MIC is recorded as 6.25 µM against S. aureus ATCC 25923; 25 µM with E. faecalis ATCC 29212; 6.25 µM with S. aureus ATCC 43300; 3.12 µM against S. pyogenes ATCC 19615; above 100 µM against K. pneumoniae ATCC 13883; 100 µM in data set [5]. In the data set with S. cerevisiae, this substance had an MIC of 12.5 µM. Further, in the data set on E. coli ATCC 25922 (ATCC 25922, pH 5), the “MIC at pH 5” value turned out to be 12.5 µM. For the same substance, the “LC50 (peptide concentration producing 50% lysis)” value with human erythrocytes stood at 39 µM. Moreover, the helix content in data set [6] was 70%; in data set [7], 96%.
Regarding FLSLIPHIVSGVASLAKHF-NH2 [PLS-S2], the IC50 in data set [1] worked out at 18.5 µM; in data set [2], 22.5 µM; in [3] it was 13.3 µM; in [4], 15 µM. Further, in data set [2], the LC50 came out at 23 µM. Also, the MIC is 6.25 µM in the data set on S. aureus ATCC BAA-44; 6.25 µM in the data set on A. baumannii ATCC 19606; 25 µM against E. coli ATCC 25922; 30 µM against E. coli ML-35p; 6.25 µM in the data set with S. aureus ST1065; 200 µM with P. aeruginosa ATCC 27853. Moreover, the MIC in the data set on S. aureus ATCC 25923 is 6.25 µM; with E. faecalis ATCC 29212, 25 µM; against S. aureus ATCC 43300 it was 6.25 µM; in the data set with S. pyogenes ATCC 19615 it was 1.56 µM; against K. pneumoniae ATCC 13883, 25 µM; in [5], 50 µM. In the data set with S. cerevisiae (YPD medium, absorbance at 630 nm, average of three independent experiments in triplicates), this substance came in with an MIC of 6.25 µM. Further, the “LC50 (peptide concentration producing 50% lysis)” value with human erythrocytes stood at 25 µM. The helix content in data set [6] amounted to 80%; in data set [7], 65%.
Consider FLSMIPHIVSGVAALAKHL-NH2 [PLS-S4], for which the IC50 amounted to 22 µM in data set [1], 23 µM in data set [2], 18 µM in data set [3] and 17.2 µM in data set [4]. In data set [2], the LC50 turned out to be 23 µM. The MIC against S. aureus ATCC BAA-44 was 6.25 µM; against A. baumannii ATCC 19606, 6.25 µM; against E. coli ATCC 25922 it was 25 µM; against E. coli ML-35p, 25 µM; with S. aureus ST1065, 6.25 µM; against P. aeruginosa ATCC 27853, 100 µM. The MIC against S. aureus ATCC 25923 is 6.25 µM; in the data set on E. faecalis ATCC 29212, 50 µM; against S. aureus ATCC 43300 it was 6.25 µM; against S. pyogenes ATCC 19615 it was 3.12 µM; against K. pneumoniae ATCC 13883, 25 µM; in data set [5], 50 µM. The same substance came in with an MIC against S. cerevisiae of 12.5 µM. For the same substance, in the data set with human erythrocytes, the “LC50 (peptide concentration producing 50% lysis)” value was found to be 33 µM. Further, the figures for the helix content in [6] and in [7] were 68% and 59%, respectively.
